Data published in patent US8674115B2, “CRTH2 modulators” (Ironwood Pharmaceuticals, Inc., priority 2009, dated 2014).

Columns and labels:
[1] = molecular target: T1, CRTH2 (Homo sapiens, UniProt Q9Y5Y4); assay: Human whole blood CD11b antagonist assay (CD11b expression in eosinophils); assay type: cell-based; set-up: endogenous in cells; host or cells: eosinophils in human whole blood; details: challenged with 10 nM 15R-Methyl-PGD2, read-out: CD11b Antag IC50(nM) [HuEos-HuWB-vs10nM15R]
T1 sequence (Q9Y5Y4 1-395): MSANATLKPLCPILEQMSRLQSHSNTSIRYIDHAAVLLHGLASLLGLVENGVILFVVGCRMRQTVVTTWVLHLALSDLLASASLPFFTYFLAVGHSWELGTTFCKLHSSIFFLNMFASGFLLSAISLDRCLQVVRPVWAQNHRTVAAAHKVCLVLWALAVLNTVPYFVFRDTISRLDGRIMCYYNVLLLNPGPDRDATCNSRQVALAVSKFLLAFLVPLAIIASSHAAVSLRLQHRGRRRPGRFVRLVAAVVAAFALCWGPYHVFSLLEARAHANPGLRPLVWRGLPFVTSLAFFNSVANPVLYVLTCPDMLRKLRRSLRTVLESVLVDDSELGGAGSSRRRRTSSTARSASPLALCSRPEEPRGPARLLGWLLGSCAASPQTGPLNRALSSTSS
Method: Human Whole Blood CD11B Antagonist Assay (Modified from Nicholson, et al. Pulmonary Pharmacology and Therapeutics: 20 (2007); 52-59).
The potential CRTH2 antagonist activity of certain compounds was tested in human whole blood using an assay that tests the ability of the compounds to block the CD11b expression in eosinophils by 15-R-methyl-PGD2. A CRTH2 antagonist should block CD11b expression by subsequently added 15-Methyl-PGD2. Human whole blood (200 μL) was incubated at 37° C. for 10 minutes in the presence of various concentrations of test compounds before being challenged with the agonist 15R-Methyl-PGD2 (10 nM). Reactions were terminated by the addition of ice-cold PBS+0.5% BSA+2 mMEDTA (1 mL) and centrifugation (300×g for 5 minutes at 4° C.) Cells were then incubated at 4° C. for 10 min in the presence of human IgG. Cells were then incubated for 30-45 min with a mixture of PE-Cy5-labeled mouse anti-human CD16 (10 ul; BD Biosciences) and FITC-labeled mouse anti-human CD11b (10 μL; Beckman Coulter.) After rinsing (1 mL ice-cold PBS+0.5% BSA+2 mMEDTA), red blood cells were lysed by the addition of 1 mL ice-cold H2O to the cell pellet for 30 sec-1 min immediately followed by the addition of 3.5% NaCl (300 μL.) Cells were then rinsed (2×-1 ml ice cold PBS+0.5% BSA+2 mMEDTA) and fixed in PBS containing 1% formaldehyde. The distribution of fluorescence intensities was measured by flow cytometry. Eosinophils were gated out on the basis of their granularity (high side scatter) and absence of CD-16. CD11b was then measured on this eosinophil population on the basis of fluorescence due to FITC.

[2] = molecular target: T1, CRTH2; assay: DPBS CD11b antagonist assay (CD11b expression in eosinophils); assay type: cell-based; details: challenged with 10 nM 15R-Methyl-PGD2, read-out: CD11b Antag IC50(nM) [HuEos-DPBS-vs10nM15R]
Method: DPBS CD11b Antagonist Assay.
The potential CRTH2 antagonist activity of certain compounds was tested using a CD11b expression assay using essentially the method described by Monneret et al. (J Pharmacol Exp Ther 304:349-55, 2003). Briefly, polymorphonuclear cells (0.5 ml; 10^6/ml cells) in PBS containing 0.9 mM CaCl2 and 0.5 mM MgCl2) were preincubated with various concentrations of test compounds at room temperature for 10 minutes before they were challenged with the agonist 15R-Methyl-PGD2 (10 nM). The incubations were terminated by the addition of ice-cold FACSFlow (BD Biosciences; Cat# 342003) and centrifugation (400 g for 5 minutes at 4° C.). The cells were then incubated for 30 minutes at 4° C. with a mixture of PE-labeled mouse anti-human VLA-4 (5 μl; BD Biosciences) and FITC-labeled mouse anti-human CD11b (10 μl; Beckman Coulter). The cells were then incubated with Optilyse C (0.25 ml; Beckman Coulter) for 15 minutes, centrifuged, and then fixed in PBS (0.4 ml; calcium and magnesium free) containing 1% formaldehyde. The distribution of fluorescence intensities among 60,000 cells was measured by flow cytometry. Eosinophils were gated out on the basis of their granularity (high side scatter) and labeling with VLA-4 (PE fluorescence). CD11b was then measured in the eosinophil region on the basis of fluorescence due to FITC. All data were corrected for the value obtained for the corresponding isotope control antibody.

| Structure (SMILES) | IC50 [1] [nM] | IC50 [2] [nM] |
| --- | --- | --- |
| CC(=O)c1c(Cc2ccccc2S(=O)(=O)N2CCCC2)c(C)n(CC(=O)O)c1C [I-53, 2-(3-acetyl-2,5-dimethyl-4-(2-(pyrrolidin-1-ylsulfonyl)benzyl)-1H-pyrrol-1-yl)acetic acid] | 5 to 100 | < 5 |
| Cc1cc(Cc2ccccc2S(=O)(=O)N2CCCC2)c(C)n1CC(=O)O [I-9, 2-(2,5-dimethyl-3-(2-(pyrrolidin-1-ylsulfonyl)benzyl)-1H-pyrrol-1-yl)acetic acid] | 5 to 100 | 5 to 100 |
